The text below walks through data of ChEMBL document CHEMBL1201862, “PubChem BioAssay data set” (2004).

Each structure is given as a SMILES string. The source made the active and inactive calls.

The nature of assay [1]: A549 cell cytotoxicity, dose response, cytotoxicity control, plate reader, cherry-pick, antagonist series (AID 743412). In kind it is functional, cell-based.
Assay [2] in a line: viability loss in HEK293 cells – cell-based, plate reader, cherry-picked samples, cytotoxicity control, dose response (AID 743446). In kind it is functional.
Assay [3] is described as follows: toxicity toward HepG2 liver cells – cell-based, plate reader, cherry-pick, antagonist series, cytotoxicity control, dose response (AID 743416). In kind it is functional.
A further assay has as its target Paired box protein Pax-8 (Homo sapiens, UniProt Q06710). The assay is described as follows: PAX8 transcriptional activity inhibition in RMG-I – RMG-I cells, luciferase, cherry-pick, dose response (AID 687027).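 Also: luciferase reporter driven by Pax8 target thyroperoxidase promoter measured by SteadyGlo luminescence.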 In kind it is functional, cell-based.
A further assay addresses Galanin receptor type 3 (Homo sapiens, UniProt O60755). The assay is described as follows: Fluorescence-based cell-based primary high throughput dose response assay to identify antagonists of the Galanin Receptor 3 (GalR3). It is filed as functional.
Assay [4] is described as follows: general cell-killing toxicity readout – plate reader, dry powder samples, cytotoxicity control for PAX8 inhibitor project, dose response (AID 743021). It is filed as functional, cell-based.
Assay [5] in a line: HEK293 Cytotoxicity Assay Measured in Cell-Based System Using Plate Reader - 7071-01_Inhibitor_Dose_CherryPick_Activity_Set2. In kind it is functional.
The next assay deals with HEK293. The assay can be described thus: viability loss in HEK293T cells – cell-based, ATP luminescence, cherry-pick samples, cytotoxicity control, dose response (AID 687005).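 Also: cells exposed to compound for 48 hours.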 It is filed as functional. Particulars: Homo sapiens.
A further assay has as its system HeLa. The assay is described as follows: viability loss in HeLa cells – cell-based, ATP luminescence, cherry-pick samples, cytotoxicity control, dose response (AID 687004). In kind it is functional. The following applies: Homo sapiens.
The nature of assay [6]: T. cruzi growth inhibition in host cells, dose response, cell-based, plate reader, dry powder, set 2 (AID 652275). It is filed as functional.
Assay [7] deals with Matrix metalloproteinase-14 (Homo sapiens, UniProt P50281). The assay can be described thus: Dose Response confirmation of uHTS hits for a small molecule inhibitors of MT1-MMP activation in a fluorescence assay set 2. In kind it is functional.
A further assay addresses Caspase-6 (Homo sapiens, UniProt P55212). The assay is described as follows: inhibition of CASP6 peptide cleavage – biochemical, VEID-R110 fluorescence, cherry-pick, dose response (AID 720632).
Assay [8] addresses Mitochondrial peptide methionine sulfoxide reductase (Bos taurus, UniProt P54149). The assay is described as follows: Absorbance-based biochemical high throughput dose response assay for activators of Methionine sulfoxide reductase A (MsrA). In kind it is functional.
Assay [9] deals with T1, Replicative DNA helicase DnaB (Mycobacterium tuberculosis, UniProt P9WMR3).
T1 sequence (P9WMR3 whole entry): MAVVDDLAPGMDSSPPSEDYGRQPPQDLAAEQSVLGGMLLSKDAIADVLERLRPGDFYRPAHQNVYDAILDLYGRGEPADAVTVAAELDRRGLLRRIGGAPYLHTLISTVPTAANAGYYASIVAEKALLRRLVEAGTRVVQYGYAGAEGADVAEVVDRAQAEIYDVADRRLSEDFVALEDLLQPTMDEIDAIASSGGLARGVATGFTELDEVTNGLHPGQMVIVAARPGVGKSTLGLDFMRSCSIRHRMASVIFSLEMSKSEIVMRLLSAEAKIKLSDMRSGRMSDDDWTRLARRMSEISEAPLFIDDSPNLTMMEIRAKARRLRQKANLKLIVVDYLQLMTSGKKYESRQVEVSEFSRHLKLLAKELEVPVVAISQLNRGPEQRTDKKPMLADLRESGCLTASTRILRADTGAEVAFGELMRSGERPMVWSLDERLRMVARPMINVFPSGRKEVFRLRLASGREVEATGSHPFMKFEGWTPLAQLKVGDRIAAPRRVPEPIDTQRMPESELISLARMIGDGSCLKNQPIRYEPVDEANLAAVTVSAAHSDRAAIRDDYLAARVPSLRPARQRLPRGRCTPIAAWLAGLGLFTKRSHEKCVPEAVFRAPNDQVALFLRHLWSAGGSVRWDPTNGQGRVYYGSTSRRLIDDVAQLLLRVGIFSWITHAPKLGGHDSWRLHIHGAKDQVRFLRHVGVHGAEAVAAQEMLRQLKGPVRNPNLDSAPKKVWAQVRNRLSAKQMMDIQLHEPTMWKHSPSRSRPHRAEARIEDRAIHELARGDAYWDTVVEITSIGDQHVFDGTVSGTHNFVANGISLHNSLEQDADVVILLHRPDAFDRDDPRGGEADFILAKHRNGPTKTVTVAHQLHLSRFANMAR
The assay is described as follows: DnaB intein splicing inhibitors, dose response, biochemical, cell-free fluorescence (AID 449749). In kind it is functional.

Another assay deals with T2, Protein RecA (Mycobacterium tuberculosis, UniProt P9WHJ3).
T2 sequence (P9WHJ3 whole entry): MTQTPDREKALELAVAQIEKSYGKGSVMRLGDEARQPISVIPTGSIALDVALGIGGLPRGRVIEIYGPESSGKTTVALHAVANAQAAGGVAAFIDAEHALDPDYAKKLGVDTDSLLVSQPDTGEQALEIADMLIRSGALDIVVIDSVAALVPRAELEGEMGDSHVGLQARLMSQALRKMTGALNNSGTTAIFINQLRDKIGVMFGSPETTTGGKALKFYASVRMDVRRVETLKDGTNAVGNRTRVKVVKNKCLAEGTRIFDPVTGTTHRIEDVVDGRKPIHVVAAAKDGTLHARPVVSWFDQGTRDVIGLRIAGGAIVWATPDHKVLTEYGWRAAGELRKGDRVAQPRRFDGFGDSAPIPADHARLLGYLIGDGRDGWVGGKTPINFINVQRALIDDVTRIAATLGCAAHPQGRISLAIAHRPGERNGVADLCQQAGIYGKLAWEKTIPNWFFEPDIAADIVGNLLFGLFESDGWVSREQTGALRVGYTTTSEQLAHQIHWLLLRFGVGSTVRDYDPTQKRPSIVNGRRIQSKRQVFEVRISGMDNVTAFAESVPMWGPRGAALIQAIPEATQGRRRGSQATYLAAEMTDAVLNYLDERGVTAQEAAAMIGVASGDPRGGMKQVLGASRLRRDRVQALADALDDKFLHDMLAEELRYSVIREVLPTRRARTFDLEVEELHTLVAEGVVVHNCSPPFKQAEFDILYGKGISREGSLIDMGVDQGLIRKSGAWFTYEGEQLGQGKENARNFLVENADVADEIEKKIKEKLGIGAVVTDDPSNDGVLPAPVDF
The assay can be described thus: Fluorescence Cell-Free Homogeneous Dose Retest to Identify Inhibitors of RecA-Intein Splicing Activity. [Related pubchem assays (depositor defined):AID2097, AID2223, AID489010, AID492950]. In kind it is functional.

In a further assay the target is Genome polyprotein (dengue virus type 2, UniProt P29990). The assay is described as follows: flavivirus cap methylation enzyme inhibition – biochemical, confirmation dose response, primary screen (AID 588689). It is filed as functional.
Assay [10] has as its target T3, Polyadenylate-binding protein 1 (Homo sapiens, UniProt P11940). The assay can be described thus: MLLE domain peptide-binding blockers, IC50 – biochemical, fluorescence polarization, FITC-PAM2 peptide, dose response (AID 602259). It is filed as functional. Particulars: read-out: IC50_Mean.
The target of a further assay is Protein S100-A4 (Homo sapiens, UniProt P26447). The assay can be described thus: human S100A4 peptide interaction inhibition curves – biochemical, fluorescence polarization, cherry-picked hits, dose response (AID 687001). In kind it is functional.
The target of assay [11] is T3, Polyadenylate-binding protein 1. The assay can be described thus: MLLE binding blockers, Cy5 peptide tracer – biochemical, fluorescence polarization, Cy5-PAM2 peptide, secondary, miRNA deadenylation inhibitor project, dose response (AID 602260). It is filed as functional. The following applies: read-out: IC50_Mean.
A further assay addresses Mu-type opioid receptor (Homo sapiens, UniProt P35372). It is filed as functional, cell-based.
Assay [12] has as its target 5-hydroxytryptamine receptor 2A (Mus musculus, UniProt P35363). It is filed as functional, cell-based.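 Also: CHO-K1 cells with tagged receptor and beta-arrestin; agonist potency measured as compound-induced activation of the receptor.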
Assay [13] has as its target T4, Beta-2 adrenergic receptor (Homo sapiens, UniProt P07550). The assay can be described thus: ADRB2 activation measured by internalization – cell-based, FAP fluorogen, flow cytometry, cherry pick 1, dose response (AID 588763). It is filed as functional.
Assay [14] addresses T4, Beta-2 adrenergic receptor. The assay can be described thus: Dose response for HTS for Beta-2AR agonists via FAP method from Powderset1. In kind it is functional.

T4 sequence (P07550 whole entry): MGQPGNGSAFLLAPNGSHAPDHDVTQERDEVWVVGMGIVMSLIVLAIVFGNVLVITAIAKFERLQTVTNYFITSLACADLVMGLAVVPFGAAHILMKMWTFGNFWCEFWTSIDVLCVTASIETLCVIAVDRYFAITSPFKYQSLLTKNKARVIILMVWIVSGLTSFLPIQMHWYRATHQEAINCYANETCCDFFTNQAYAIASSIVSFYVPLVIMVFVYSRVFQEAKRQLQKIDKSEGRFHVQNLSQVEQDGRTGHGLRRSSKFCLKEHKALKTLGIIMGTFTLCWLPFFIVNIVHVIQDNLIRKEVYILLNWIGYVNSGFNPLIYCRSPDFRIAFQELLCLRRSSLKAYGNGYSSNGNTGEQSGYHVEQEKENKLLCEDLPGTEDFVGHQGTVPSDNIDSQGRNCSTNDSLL
T3 sequence (P11940 whole entry, the tested form may be a part): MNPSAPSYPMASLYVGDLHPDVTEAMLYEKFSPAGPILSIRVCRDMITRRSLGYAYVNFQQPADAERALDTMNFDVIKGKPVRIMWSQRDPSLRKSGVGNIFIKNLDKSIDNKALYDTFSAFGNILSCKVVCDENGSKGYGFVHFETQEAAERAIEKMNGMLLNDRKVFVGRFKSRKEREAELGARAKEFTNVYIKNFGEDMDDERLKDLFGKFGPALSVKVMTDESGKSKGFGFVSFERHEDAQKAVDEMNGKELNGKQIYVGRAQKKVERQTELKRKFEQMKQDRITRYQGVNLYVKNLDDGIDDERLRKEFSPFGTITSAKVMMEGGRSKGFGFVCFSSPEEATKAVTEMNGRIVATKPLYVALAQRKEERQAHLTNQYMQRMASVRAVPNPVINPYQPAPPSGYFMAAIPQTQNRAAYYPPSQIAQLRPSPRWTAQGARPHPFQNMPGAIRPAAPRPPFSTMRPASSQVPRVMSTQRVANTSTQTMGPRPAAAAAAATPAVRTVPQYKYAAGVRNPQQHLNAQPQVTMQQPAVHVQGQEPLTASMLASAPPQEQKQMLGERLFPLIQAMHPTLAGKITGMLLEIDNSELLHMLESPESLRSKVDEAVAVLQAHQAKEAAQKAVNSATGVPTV
Chain of Genome polyprotein (P29990 2492-3391 limits assumed): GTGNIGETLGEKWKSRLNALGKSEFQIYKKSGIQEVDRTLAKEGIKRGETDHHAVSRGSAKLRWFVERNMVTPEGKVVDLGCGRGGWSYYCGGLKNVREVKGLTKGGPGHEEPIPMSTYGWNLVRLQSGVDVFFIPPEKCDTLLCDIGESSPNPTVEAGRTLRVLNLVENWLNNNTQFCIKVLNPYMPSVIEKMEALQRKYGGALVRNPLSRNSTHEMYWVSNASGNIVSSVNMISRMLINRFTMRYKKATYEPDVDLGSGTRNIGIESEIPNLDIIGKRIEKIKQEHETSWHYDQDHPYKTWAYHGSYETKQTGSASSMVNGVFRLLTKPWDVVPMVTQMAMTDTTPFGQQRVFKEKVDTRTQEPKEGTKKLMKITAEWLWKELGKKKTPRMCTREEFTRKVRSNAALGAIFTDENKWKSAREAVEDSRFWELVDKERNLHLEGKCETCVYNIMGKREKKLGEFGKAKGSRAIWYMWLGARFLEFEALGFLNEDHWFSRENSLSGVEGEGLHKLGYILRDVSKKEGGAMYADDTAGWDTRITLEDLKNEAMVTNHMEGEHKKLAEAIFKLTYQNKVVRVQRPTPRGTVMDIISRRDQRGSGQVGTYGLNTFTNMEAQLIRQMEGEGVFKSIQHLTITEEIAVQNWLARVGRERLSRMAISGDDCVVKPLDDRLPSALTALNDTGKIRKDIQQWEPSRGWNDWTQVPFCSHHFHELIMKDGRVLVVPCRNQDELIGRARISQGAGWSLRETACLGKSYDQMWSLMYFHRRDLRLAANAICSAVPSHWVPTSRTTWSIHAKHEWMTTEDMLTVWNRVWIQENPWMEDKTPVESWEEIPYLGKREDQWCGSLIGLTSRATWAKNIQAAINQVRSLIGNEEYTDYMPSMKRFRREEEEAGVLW
Chain of Galanin receptor type 3 (O60755 whole entry): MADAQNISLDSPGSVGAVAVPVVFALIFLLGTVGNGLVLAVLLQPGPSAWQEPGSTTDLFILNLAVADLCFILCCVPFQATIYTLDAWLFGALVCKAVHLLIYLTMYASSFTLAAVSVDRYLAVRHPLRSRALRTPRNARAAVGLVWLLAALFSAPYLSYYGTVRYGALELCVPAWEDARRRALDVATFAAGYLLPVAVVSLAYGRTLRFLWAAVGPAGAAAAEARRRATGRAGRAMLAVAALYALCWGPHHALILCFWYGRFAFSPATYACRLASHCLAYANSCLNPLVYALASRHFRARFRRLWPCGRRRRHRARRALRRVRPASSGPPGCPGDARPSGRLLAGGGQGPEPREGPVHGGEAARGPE
Chain of Caspase-6 (P55212 24-179 limits assumed): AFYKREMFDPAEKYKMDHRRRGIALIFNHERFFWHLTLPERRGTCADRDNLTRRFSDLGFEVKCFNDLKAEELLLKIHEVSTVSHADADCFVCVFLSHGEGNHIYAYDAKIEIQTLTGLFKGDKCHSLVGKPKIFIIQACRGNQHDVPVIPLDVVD
Chain of Caspase-6 (P55212 194-293 limits assumed): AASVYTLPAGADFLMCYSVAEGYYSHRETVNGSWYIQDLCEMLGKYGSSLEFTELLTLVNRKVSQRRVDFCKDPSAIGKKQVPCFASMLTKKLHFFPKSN
Chain of 5-hydroxytryptamine receptor 2A (P35363 whole entry): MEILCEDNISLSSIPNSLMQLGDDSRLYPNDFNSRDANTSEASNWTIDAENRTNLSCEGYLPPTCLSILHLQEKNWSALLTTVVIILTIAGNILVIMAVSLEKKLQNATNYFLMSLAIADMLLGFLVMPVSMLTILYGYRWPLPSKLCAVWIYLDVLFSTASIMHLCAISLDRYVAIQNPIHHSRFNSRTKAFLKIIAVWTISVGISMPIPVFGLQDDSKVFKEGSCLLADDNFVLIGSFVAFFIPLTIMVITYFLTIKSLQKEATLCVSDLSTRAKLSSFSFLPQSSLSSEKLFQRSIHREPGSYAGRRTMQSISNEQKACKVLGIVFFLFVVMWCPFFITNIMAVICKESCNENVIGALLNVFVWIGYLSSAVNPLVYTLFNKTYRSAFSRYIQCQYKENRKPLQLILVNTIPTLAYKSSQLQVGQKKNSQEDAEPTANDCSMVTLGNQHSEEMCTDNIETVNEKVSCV
Chain of Mu-type opioid receptor (P35372 whole entry): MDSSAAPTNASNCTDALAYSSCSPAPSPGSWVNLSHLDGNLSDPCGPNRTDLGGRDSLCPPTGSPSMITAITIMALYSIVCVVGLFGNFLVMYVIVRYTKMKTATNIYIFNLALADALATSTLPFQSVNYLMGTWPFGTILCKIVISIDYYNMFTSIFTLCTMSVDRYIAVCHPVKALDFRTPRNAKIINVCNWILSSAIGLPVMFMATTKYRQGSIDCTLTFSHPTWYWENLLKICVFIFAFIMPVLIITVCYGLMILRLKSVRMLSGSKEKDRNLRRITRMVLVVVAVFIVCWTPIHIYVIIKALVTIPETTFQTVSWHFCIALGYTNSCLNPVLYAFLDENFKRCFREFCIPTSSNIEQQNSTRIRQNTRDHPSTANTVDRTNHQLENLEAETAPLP
Chain of Mitochondrial peptide methionine sulfoxide reductase (P54149 whole entry): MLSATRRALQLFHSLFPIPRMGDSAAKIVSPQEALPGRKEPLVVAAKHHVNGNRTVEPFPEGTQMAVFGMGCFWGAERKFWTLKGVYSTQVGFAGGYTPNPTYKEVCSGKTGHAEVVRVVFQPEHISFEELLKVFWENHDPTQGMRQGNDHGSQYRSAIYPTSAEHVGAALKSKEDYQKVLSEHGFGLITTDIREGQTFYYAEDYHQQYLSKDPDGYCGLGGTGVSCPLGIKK
Chain of Paired box protein Pax-8 (Q06710 whole entry): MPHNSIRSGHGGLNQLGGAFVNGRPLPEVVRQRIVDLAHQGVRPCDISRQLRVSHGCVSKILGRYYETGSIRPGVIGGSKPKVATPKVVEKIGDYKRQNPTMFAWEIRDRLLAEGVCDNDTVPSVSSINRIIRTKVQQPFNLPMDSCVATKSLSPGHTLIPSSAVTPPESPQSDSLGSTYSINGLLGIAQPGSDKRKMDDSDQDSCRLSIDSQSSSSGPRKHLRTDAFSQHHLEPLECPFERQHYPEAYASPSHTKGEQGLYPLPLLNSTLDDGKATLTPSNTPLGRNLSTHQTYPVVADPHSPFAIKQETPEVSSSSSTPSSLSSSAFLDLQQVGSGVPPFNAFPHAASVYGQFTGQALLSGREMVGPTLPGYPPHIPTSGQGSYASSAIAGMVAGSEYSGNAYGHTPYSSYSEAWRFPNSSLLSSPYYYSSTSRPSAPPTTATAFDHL
Chain of Protein S100-A4 (P26447 whole entry): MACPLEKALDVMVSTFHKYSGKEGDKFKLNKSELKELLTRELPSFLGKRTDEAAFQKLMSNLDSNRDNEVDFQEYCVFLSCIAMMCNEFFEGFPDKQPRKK

As for `COc1ccc(S(=O)(=O)N2CCOCC2)cc1NC(=O)COc1ccc(C)cc1`, the AC50 in [1] is 8.06 µM (active); in assay [2], 28.1 µM (active); in assay [3], 8.95 µM (active).

Turning to `NC(=O)c1cn(C2OC(CO)C(O)C2O)c2ncnc(N)c12` (stereo not drawn), the concentration at half-maximal activity (AC50) at Paired box protein Pax-8 is < 0.26 µM (active); in assay [4], 0.591 µM (active). The IC50 at Galanin receptor type 3 is 1.28 µM (active).

Take `C[C@@H]1CN([C@H](C)CO)C(=O)c2c(c3ccccc3n2C)-c2ccccc2CO[C@H]1CN(C)S(=O)(=O)c1ccc(Cl)cc1`: the values for the AC50 (in assay [5]; in the assay with HEK293; with HeLa) were 23.1 µM (active), 23.1 µM (active) and > 47 µM (inactive), respectively.

In the case of `CN1CCCCN2[C@@H](CO)[C@H](c3ccc(Br)cc3)[C@@H]2C1`, the AC50 in assay [6] was 16 µM (active).

Regarding `C[n+]1c2ccccc2nc2ccc(NCCO)cc21`, the IC50 is 10.5 µM (active) in assay [7] and 18.6 µM (active) on Genome polyprotein. Moreover, the AC50 on Caspase-6 is 3.35 µM (active); in assay [9] it was 19.9 µM (active). Besides, the EC50 was 3.53 µM (active) in assay [8] and 2.38 µM (active) at Protein RecA.

As to `Cc1cc2ccccc2n1CCNC(=O)c1ccc(Br)o1`, the IC50 in [10] and in assay [11] was > 66 µM (inactive) throughout. Also, the half-maximal activity concentration (AC50) at Protein S100-A4 is 6.02 µM (active).

As for `O=C(Cn1cnc2ccccc2c1=O)N1CCN(Cc2ccc3c(c2)OCO3)CC1`, the EC50 was 92.5 µM (inactive) at Mu-type opioid receptor and 16.4 µM (inactive) in [12].

`CN(CC(=O)N1CCN(c2ccccn2)CC1)S(=O)(=O)c1ccccc1`: the EC50 is 0.274 µM (active) in [13] and 0.0435 µM (active) in assay [14].
